This is an account of results in patent publication US10759813B2, “Neprilysin inhibitors” (THERAVANCE BIOPHARMA R&D IP, LLC, priority 2010, dated 2020).

human neprilysin (EC 3.4.24.11; NEP), sequence (P08473 52-750): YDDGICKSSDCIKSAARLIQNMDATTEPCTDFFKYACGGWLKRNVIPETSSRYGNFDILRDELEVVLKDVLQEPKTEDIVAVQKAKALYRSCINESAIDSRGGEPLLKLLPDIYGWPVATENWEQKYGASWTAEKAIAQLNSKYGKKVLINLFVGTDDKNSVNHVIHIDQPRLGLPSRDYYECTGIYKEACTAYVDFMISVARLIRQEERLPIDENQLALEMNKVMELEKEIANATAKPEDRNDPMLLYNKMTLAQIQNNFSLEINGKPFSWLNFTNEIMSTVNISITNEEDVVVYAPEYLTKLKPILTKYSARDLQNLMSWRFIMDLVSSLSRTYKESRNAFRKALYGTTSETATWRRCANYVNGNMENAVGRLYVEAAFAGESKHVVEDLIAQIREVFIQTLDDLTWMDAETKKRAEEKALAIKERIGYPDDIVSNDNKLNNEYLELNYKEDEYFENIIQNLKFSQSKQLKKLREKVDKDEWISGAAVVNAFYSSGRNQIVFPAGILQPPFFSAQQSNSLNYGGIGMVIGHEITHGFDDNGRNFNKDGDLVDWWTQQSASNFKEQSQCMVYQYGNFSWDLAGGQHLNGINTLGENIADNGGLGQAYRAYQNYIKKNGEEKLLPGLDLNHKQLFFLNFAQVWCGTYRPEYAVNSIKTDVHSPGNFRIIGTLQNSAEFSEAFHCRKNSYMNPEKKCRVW

This assay concerns the target human neprilysin (EC 3.4.24.11; NEP) (Homo sapiens (Human), UniProt P08473). The assay can be described thus: In vitro enzyme inhibition assay at human NEP (fluorogenic peptide substrate). Type of assay: biochemical. To be noted: pKi values at human NEP, recombinant human NEP. The procedure, abridged:
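Recombinant human NEP preincubated 30 min at 37 °C with compound (10 μM down to pM), then 10 μM Mca-D-Arg-Arg-Leu-Dap-(Dnp)-OH in 50 mM HEPES pH 7.5, 100 mM NaCl, 0.01% Tween-20, 10 μM ZnSO4. Stopped after 20 min with acetic acid; fluorescence Ex320/Em405; Ki by nonlinear fit, reported as pKi.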
`COc1ccccc1C(=O)Nc1cc(C(=O)N[C@H](Cc2ccc(-c3cccc(Cl)c3)cc2)C[C@@H](O)C(=O)O)[nH]n1` [Example 18-31, (2R,4R)-5-(3′-Chloro-biphenyl-4-yl)-2-hydroxy-4-{[5-(2-methoxy-benzoylamino)-2H-pyrazole-3-carbonyl]-amino}-pentanoic acid]: the negative-log Ki (pKi) (in general, −log10 of the Ki, conventionally taken in molar units) is recorded as at least 9.0.
Take `CC(O)c1cc(C(=O)N[C@H](Cc2ccc(-c3cccc(Cl)c3)cc2)C[C@@H](O)C(=O)O)[nH]n1` (stereo partly drawn) [Example 18-32, (2R,4R)-5-(3′-Chloro-biphenyl-4-yl)-2-hydroxy-4-{[5-(1-hydroxy-ethyl)-2H-pyrazole-3-carbonyl]-amino}-pentanoic acid]: the pKi is recorded as at least 9.0.
As for `O=C(N[C@H](Cc1ccc(-c2cccc(Cl)c2)cc1)C[C@@H](O)C(=O)O)c1cc(-c2cccnc2)[nH]n1` [Example 18-34, (2R,4R)-5-(3′-Chlorobiphenyl-4-yl)-2-hydroxy-4-[(5-pyridin-3-yl-1H-pyrazole-3-carbonyl)-amino]-pentanoic acid], the pKi is at least 9.0.
For `Cn1nc(C(=O)N[C@H](Cc2ccc(-c3cccc(Cl)c3)cc2)C[C@@H](O)C(=O)O)cc1O` [Example 18-35, (2R,4R)-5-(3′-Chloro-biphenyl-4-yl)-2-hydroxy-4-[(5-hydroxy-1-methyl-1H-pyrazole-3-carbonyl)-amino]-pentanoic acid], the pKi was at least 9.0.
In the case of `O=C(N[C@H](Cc1ccc(-c2cccc(Cl)c2)cc1)C[C@@H](O)C(=O)O)c1cc(O)n(-c2ccccn2)n1` [Example 18-37, (2R,4R)-5-(3′-Chloro-biphenyl-4-yl)-2-hydroxy-4-[(5-hydroxy-1-pyridin-2-yl-1H-pyrazole-3-carbonyl)-amino]-pentanoic acid], the pKi is at least 9.0.
Regarding `O=C(N[C@H](Cc1ccc(-c2cccc(Cl)c2)cc1)C[C@@H](O)C(=O)O)c1cc(O)n(-c2ccccc2F)n1` [Example 18-38, (2R,4R)-5-(3′-Chloro-biphenyl-4-yl)-4-{[1-(2-fluoro-phenyl)-5-hydroxy-1H-pyrazole-3-carbonyl]-amino}-2-hydroxy-pentanoic acid], the negative-log Ki (pKi) is given as at least 9.0.
As to `O=C(N[C@@H](Cc1ccc(-c2cccc(Cl)c2)cc1)C[C@@H](O)C(=O)O)c1cc(O)n(-c2cccc(Cl)c2)n1` [Example 18-39, (2R,4S)-5-(3′-Chloro-biphenyl-4-yl)-4-{[1-(3-chloro-phenyl)-5-hydroxy-1H-pyrazole-3-carbonyl]-amino}-2-hydroxy-pentanoic acid], the pKi is on record as at least 9.0.
Same read-out and setting: to `CCOc1cc(C(=O)N[C@H](Cc2ccc(-c3cccc(Cl)c3)cc2)C[C@@H](O)C(=O)O)n[nH]1` [Example 18-40, (2R,4R)-5-(3′-Chloro-biphenyl-4-yl)-4-[(5-ethoxy-1H-pyrazole-3-carbonyl)-amino]-2-hydroxy-pentanoic acid] belongs at least 9.0; to `O=C(N[C@H](Cc1ccc(-c2cccc(Cl)c2)cc1)C[C@@H](O)C(=O)O)c1cc(=O)n(-c2ccccc2)[nH]1` [Example 18-41, (2R,4R)-5-(3′-Chlorobiphenyl-4-yl)-2-hydroxy-4-[(5-oxo-1-phenyl-2,5-dihydro-1H-pyrazole-3-carbonyl)-amino]-pentanoic acid], at least 9.0; to `O=C(N[C@H](Cc1ccc(-c2cccc(Cl)c2)cc1)C[C@@H](O)C(=O)O)c1nn(-c2cccc(Cl)c2)c(=O)[nH]1` [Example 18-42, (2R,4R)-5-(3′-Chloro-biphenyl-4-yl)-4-{[1-(3-chloro-phenyl)-5-oxo-4,5-dihydro-1H-[1,2,4]triazole-3-carbonyl]-amino}-2-hydroxy-pentanoic acid], at least 9.0.
As for `O=C(N[C@H](Cc1ccc(-c2cccc(Cl)c2)cc1)C[C@@H](O)C(=O)O)c1nn(-c2ccccc2Cl)c(=O)[nH]1` [Example 18-43, (2R,4R)-5-(3′-Chloro-biphenyl-4-yl)-4-{[1-(2-chloro-phenyl)-5-oxo-4,5-dihydro-1H-[1,2,4]triazole-3-carbonyl]-amino}-2-hydroxy-pentanoic acid], the negative logarithm of the Ki (pKi) is listed as at least 9.0.
Regarding `O=C(N[C@H](Cc1ccc(-c2cccc(Cl)c2)cc1)C[C@@H](O)C(=O)O)c1nn(-c2ccc(F)cc2)c(=O)[nH]1` [Example 18-44, (2R,4R)-5-(3′-Chloro-biphenyl-4-yl)-4-{[1-(4-fluoro-phenyl)-5-oxo-4,5-dihydro-1H-[1,2,4]triazole-3-carbonyl]-amino}-2-hydroxy-pentanoic acid], the negative-log Ki (pKi) was at least 9.0.
In the case of `O=C(N[C@H](Cc1ccc(-c2cccc(Cl)c2)cc1)C[C@@H](O)C(=O)O)c1nnc(C(F)(F)F)[nH]1` [Example 18-45, (2R,4R)-5-(3′-Chlorobiphenyl-4-yl)-2-hydroxy-4-[(5-trifluoromethyl-4H-[1,2,4]triazole-3-carbonyl)-amino]-pentanoic acid], the pKi is at least 9.0.
`O=C(N[C@H](Cc1ccc(-c2cccc(Cl)c2)cc1)C[C@@H](O)C(=O)O)c1n[nH]c(Cl)n1` [Example 18-46, (2R,4R)-5-(3′-Chlorobiphenyl-4-yl)-4-[(5-chloro-1H-[1,2,4]triazole-3-carbonyl)-amino]-2-hydroxy-pentanoic acid]: the negative logarithm of the Ki (pKi) was at least 9.0.
On to `O=C(N[C@H](Cc1ccc(-c2cccc(Cl)c2)cc1)C[C@@H](O)C(=O)O)c1nn(-c2ccccc2)c(=O)[nH]1` [Example 18-47, (2R,4R)-5-(3′-Chlorobiphenyl-4-yl)-2-hydroxy-4-[(5-oxo-1-phenyl-4,5-dihydro-1H-[1,2,4]triazole-3-carbonyl)-amino]-pentanoic acid], for which the negative-log Ki (pKi) is recorded as at least 9.0.
`O=C(N[C@H](Cc1ccc(-c2cccc(Cl)c2)cc1)C[C@@H](O)C(=O)O)c1ccc(=O)n(Cc2ccccc2)n1` [Example 18-48, (2R,4R)-4-[(1-Benzyl-6-oxo-1,6-dihydro-pyridazine-3-carbonyl)-amino]-5-(3′-chlorobiphenyl-4-yl)-2-hydroxy-pentanoic acid]: the inhibitory constant (Ki) (usually a measure of affinity in units of concentration, obtained from inhibition or displacement) was 1.26 to 10 nM.
For `O=C(N[C@H](Cc1ccc(-c2cccc(Cl)c2)cc1)C[C@@H](O)C(=O)O)c1ccc(=O)n(-c2ccccc2)n1` [Example 18-49, (2R,4R)-5-(3′-Chlorobiphenyl-4-yl)-2-hydroxy-4-[(6-oxo-1-phenyl-1,6-dihydro-pyridazine-3-carbonyl)-amino]-pentanoic acid], the inhibition constant Ki was 1.26 to 10 nM.
With `O=C(N[C@H](Cc1ccc(-c2cccc(Cl)c2)cc1)C[C@@H](O)C(=O)O)c1ccc(O)nn1` [Example 18-50, (2R,4R)-5-(3′-Chlorobiphenyl-4-yl)-2-hydroxy-4-[(6-hydroxy-pyridazine-3-carbonyl)-amino]-pentanoic acid], the pKi is at least 9.0.
With `O=C(N[C@H](Cc1ccc(-c2cc(Cl)ccc2Cl)cc1)C[C@@H](O)C(=O)O)c1cn(O)nn1` [Example 19-1, (2R,4R)-5-(2′,5′-Dichlorobiphenyl-4-yl)-2-hydroxy-4-[(1-hydroxy-1H-[1,2,3]triazole-4-carbonyl)-amino]-pentanoic acid], the pKi is at least 9.0.
Consider `O=C(N[C@H](Cc1ccc(-c2cc(Cl)ccc2F)cc1)C[C@@H](O)C(=O)O)c1cn(O)nn1` [Example 19-6, (2R,4R)-5-(5′-Chloro-2′-fluorobiphenyl-4-yl)-2-hydroxy-4[(1-hydroxy-1H-[1,2,3]triazole-4-carbonyl)-amino]-pentanoic acid], for which the pKi is at least 9.0.
With `Cc1ccc(Cl)cc1-c1ccc(C[C@H](C[C@@H](O)C(=O)O)NC(=O)c2cn(O)nn2)cc1` [Example 19-12, (2R,4R)-5-(5′-Chloro-2′-methyl-biphenyl-4-yl)-2-hydroxy-4-[(1-hydroxy-1H-[1,2,3]triazole-4-carbonyl)-amino]-pentanoic acid], the pKi was at least 9.0.
On to `COc1ccccc1-c1ccc(C[C@H](C[C@@H](O)C(=O)O)NC(=O)c2cn(O)nn2)cc1` [Example 19-17, (2R,4R)-2-Hydroxy-4-[(1-hydroxy-1H-[1,2,3]triazole-4-carbonyl)-amino]-5-(2′-methoxy-biphenyl-4-yl)-pentanoic acid], for which the pKi is at least 9.0.
As to `CC(=O)OCOn1nncc1C(=O)N[C@H](Cc1ccc(-c2cc(Cl)ccc2F)cc1)C[C@@H](O)C(=O)O` [Example 19-18, (2R,4R)-4-[(3-Acetoxymethoxy-3H-[1,2,3]triazole-4-carbonyl)-amino]-5-(5′-chloro-2′-fluoro-biphenyl-4-yl)-2-hydroxy-pentanoic acid], the pKi is on record as at least 9.0.
On the same count and under the same terms, as for `COc1cc(C(=O)N[C@H](Cc2ccc(-c3cc(Cl)ccc3F)cc2)C[C@@H](O)C(=O)O)on1` [Example 19-19, (2R,4R)-5-(5′-Chloro-2′-fluoro-biphenyl-4-yl)-2-hydroxy-4-[(3-methoxy-isoxazole-5-carbonyl)-amino]-pentanoic acid], the figure is at least 9.0; as for `O=C(N[C@H](Cc1ccc(-c2cc(Cl)ccc2F)cc1)C[C@@H](O)C(=O)O)c1nn(-c2ccccc2)c(=O)[nH]1` [Example 19-20, (2R,4R)-5-(5′-Chloro-2′-fluoro-biphenyl-4-yl)-2-hydroxy-4-[(5-oxo-1-phenyl-4,5-dihydro-1H-[1,2,4]triazole-3-carbonyl)-amino]-pentanoic acid], at least 9.0.
On to `CC(=O)OCOn1nnc2ccc(C(=O)N[C@H](Cc3ccc(-c4cc(Cl)ccc4Cl)cc3)C[C@@H](O)C(=O)O)cc21` [Example 19-21, (2R,4R)-4-[(3-Acetoxymethoxy-3H-benzotriazole-5-carbonyl)-amino]-5-(2′,5-dichloro-biphenyl-4-yl)-2-hydroxy-pentanoic acid], for which the Ki was at most 1 nM.
Turning to `O=C(N[C@H](Cc1ccc(-c2ccccc2)cc1Cl)C[C@@H](O)C(=O)O)c1c[nH]nn1` [Example 20-1, (2R,4R)-5-(3-Chlorobiphenyl-4-yl)-2-hydroxy-4-[(1H-[1,2,3]triazole-4-carbonyl)-amino]-pentanoic acid], the pKi was at least 9.0.
On to `O=C(N[C@H](Cc1ccc(-c2ccccc2)cc1Cl)C[C@@H](O)C(=O)O)c1cnn[nH]1` [Example 20-2, (2R,4R)-5-(3-Chlorobiphenyl-4-yl)-2-hydroxy-4-[(3H-[1,2,3]triazole-4-carbonyl)-amino]-pentanoic acid], for which the pKi was at least 9.0.
